Earlier results on two compounds are cited in patent publication US20130317107A1, “Platelet-Based Methods to Detect and Monitor Treatment Benefits in Mucosal and Nervous Systems Diseases” (priority 2012, published 2013).

The subject of data set [1] is collagen-stimulated platelets.
A further data set deals with dogs. As to conditions: administered intravenously in dogs.
The conditions of data set [2]: relative to cysteine.
The test system of data set [3] is interluekin-1 beta (IL-1β)-induced eotaxin and monocyte chemotactic protein-1 (MCP-1) expression. The note with it: by inhibiting activation of p38 MAP kinase.
For data set [4] the following is noted: relative to the stable cysteine disulfide.
Data set [5] relates to human bronchial epithelial cells.
In a further data set the test system is p38 MAP kinase. The note with it: human bronchial epithelial cells.

`CC(=O)Oc1ccccc1C(=O)O` [Aspirin]: the CD40L release result in data set [1] is “only partially inhibit”.

As for `CC(=O)N[C@@H](CS)C(=O)O` [N-acetylcysteine], the “protection against pulmonary oxygen toxicity and ischemic and reperfusion damage” value with dogs is “protect”. The “stability compared with cysteine” value in data set [2] is listed as “about 10 times”. Also, the “IL-1β-induced eotaxin and MCP-1 expression and production” value in data set [3] is recorded as “inhibit”. The “solubility compared with cystine” value in data set [4] is “much more soluble”. Also, in data set [5], the “DEP-induced IL-8 and RANTES production” value is “inhibited”. Moreover, the “DEP-induced p38 MAP kinase activity” value in the data set with p38 MAP kinase is on record as “inhibit”.
